Some test systems named below: A549 NSCLC; HOP-92 NSCLC; LOX IMVI melanoma; MDA-MB-435; NCI-H460 lung; NCI/ADR-RES ovarian; SF-539 CNS; SR leukemia; TK-10 renal; T-47D breast.
Common to all, as to experiment: NCI tumour cell line growth inhibition, 48 h

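48-hour exposure; five concentrations; linearly interpolated endpoints. GI50 = concentration required for 50% inhibition of growth. The concentration for full growth arrest is given as TGI.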 A value given as a limit tells only on which side of the number the result lay.

The record followed here is PubChem BioAssay (NCI).

As to `COC(COC(N)=O)C1=C(N2CC2)C(=O)C(C)=C(N2CC2)C1=O` (stereo not given), the TGI in the experiment on A549 NSCLC is 2.21 µM; in the experiment on HOP-92 NSCLC, 1.15 µM; with LOX IMVI melanoma, 0.326 µM; with MDA-MB-435, 1.42 µM; in the experiment with NCI-H460 lung, 0.115 µM; with NCI/ADR-RES ovarian it was 0.101 µM. The TGI in the experiment on SF-539 CNS is 0.202 µM; in the experiment with SR leukemia, 2.19 µM; in the experiment with TK-10 renal it was 2.64 µM.
`C=C(C)[C@H]1CC[C@@]2(C)C(C1)[C@H](C)CC[C@@H]2O` (stereo not given in full): the TGI with A549 NSCLC, with HOP-92 NSCLC, in the experiment on LOX IMVI melanoma, in the experiment on NCI-H460 lung, in the experiment on SF-539 CNS and in the experiment with SR leukemia was above 100 µM throughout. Moreover, in the experiment on TK-10 renal, the TGI is above 100 µM.
With `COC1CCC(OS(C)(=O)=O)C(CO)O1` (stereo not given), the TGI in the experiment with A549 NSCLC, in the experiment with HOP-92 NSCLC, with LOX IMVI melanoma, with NCI-H460 lung, in the experiment on SF-539 CNS and with SR leukemia was above 100 µM each time. In the experiment on TK-10 renal, this molecule showed a TGI above 100 µM.
As to `C=CN(C(=O)N1CCN(c2cc3c(cc2F)c(=O)c(C(=O)O)cn3C2CC2)CC1)c1nc(-c2ccc(OC)cc2)cs1`, the GI50 with A549 NSCLC was 3.39 µM; in the experiment on HOP-92 NSCLC it was 2.45 µM; in the experiment with LOX IMVI melanoma, 2.45 µM; in the experiment on NCI-H460 lung, 3.54 µM; with NCI/ADR-RES ovarian it was 3.07 µM; in the experiment with SF-539 CNS, 2.8 µM. The GI50 was 2.69 µM in the experiment on SR leukemia, 3.12 µM in the experiment with T-47D breast and 5.23 µM with TK-10 renal. In addition, the TGI in the experiment with A549 NSCLC is above 100 µM; with HOP-92 NSCLC, 5.57 µM; with LOX IMVI melanoma, above 100 µM; in the experiment on NCI-H460 lung, above 100 µM; with NCI/ADR-RES ovarian, 9.07 µM; with SF-539 CNS it was 7.78 µM. Also, the figures for the TGI in the experiment on SR leukemia, in the experiment with T-47D breast and in the experiment on TK-10 renal were above 100 µM, above 100 µM and 23.7 µM, respectively.
Turning to `COc1ccc(Nc2nc3cc(N)cc(N)c3nc2-c2ccccc2)cc1`, the GI50 was 27.8 µM in the experiment on A549 NSCLC; 19.9 µM in the experiment with HOP-92 NSCLC; 16.1 µM in the experiment on LOX IMVI melanoma; 16.5 µM with MDA-MB-435; 26.8 µM with NCI-H460 lung; 18.9 µM in the experiment with NCI/ADR-RES ovarian. Also, the GI50 is 19.2 µM with SR leukemia, 17.8 µM with T-47D breast and 16.5 µM with TK-10 renal. Further, the TGI is above 100 µM in the experiment on A549 NSCLC; 52.6 µM in the experiment with HOP-92 NSCLC; 29.8 µM in the experiment with LOX IMVI melanoma; 30.1 µM in the experiment on MDA-MB-435; 89.9 µM in the experiment on NCI-H460 lung; 44.9 µM in the experiment on NCI/ADR-RES ovarian. Also, the TGI in the experiment with SR leukemia is above 100 µM; in the experiment on T-47D breast it was 53.8 µM; with TK-10 renal, 42.5 µM.
With `C=CSCCC(N)C(=O)O` (stereo not given), the TGI in the experiment on A549 NSCLC, with HOP-92 NSCLC, with LOX IMVI melanoma, in the experiment on NCI-H460 lung, in the experiment on SF-539 CNS and with SR leukemia was above 100 µM each time. In the experiment on TK-10 renal, this molecule yielded a TGI above 100 µM.
On to `Cc1onc(-c2ccccc2)c1C(=O)N/N=C/c1cc(Cl)cc(Cl)c1O`, for which the GI50 is 5.07 µM with A549 NSCLC; 2.93 µM in the experiment with LOX IMVI melanoma; 6.39 µM with MDA-MB-435; 3.6 µM in the experiment on NCI-H460 lung; 3.76 µM in the experiment with NCI/ADR-RES ovarian; 2.65 µM in the experiment with SF-539 CNS. The GI50 in the experiment on SR leukemia is 3.74 µM; in the experiment with T-47D breast, 6.31 µM; with TK-10 renal, 5.01 µM. In addition, the TGI was above 100 µM in the experiment with A549 NSCLC; 32.3 µM in the experiment on LOX IMVI melanoma; above 100 µM in the experiment with MDA-MB-435; above 100 µM in the experiment with NCI-H460 lung; 34.3 µM in the experiment with NCI/ADR-RES ovarian; 11.6 µM in the experiment with SF-539 CNS. The TGI was 25.1 µM in the experiment with SR leukemia, 57.8 µM in the experiment on T-47D breast and above 100 µM with TK-10 renal.
Regarding `O=C(O)CSc1n[nH]c(=O)[nH]c1=O`, the TGI in the experiment with A549 NSCLC, in the experiment on LOX IMVI melanoma, in the experiment with MDA-MB-435, with NCI-H460 lung, with NCI/ADR-RES ovarian and with SF-539 CNS was above 100 µM in each case. The TGI in the experiment on SR leukemia and with T-47D breast was above 100 µM throughout.
As for `NS(=O)(=O)OC[C@H]1C[C@@H](Nc2ccnc3cc(-c4cccc(SC(F)(F)F)c4)nn23)[C@H](O)[C@@H]1O`, the GI50 with A549 NSCLC was 0.206 µM; in the experiment with HOP-92 NSCLC, 0.0308 µM; in the experiment on MDA-MB-435 it was 0.035 µM; in the experiment with NCI-H460 lung, 0.259 µM; in the experiment with SF-539 CNS, 0.0143 µM; in the experiment with SR leukemia it was 0.0316 µM. The GI50 in the experiment on TK-10 renal is 0.126 µM. Further, the TGI with A549 NSCLC came out at 0.445 µM; in the experiment with HOP-92 NSCLC it was 0.0788 µM; in the experiment with MDA-MB-435 it was 0.144 µM; in the experiment on NCI-H460 lung it was 0.679 µM; with SF-539 CNS, 0.037 µM; with SR leukemia it was 1.05 µM. In the experiment with TK-10 renal, this molecule yielded a TGI of 0.336 µM.
For the molecule `O=C(C(=O)c1cc2ccccc2[nH]1)c1cc2ccccc2[nH]1`, the TGI in the experiment on A549 NSCLC is above 347 µM; with HOP-92 NSCLC, above 347 µM; with LOX IMVI melanoma, above 347 µM; in the experiment on NCI-H460 lung it was above 347 µM; with SF-539 CNS it was above 347 µM; with SR leukemia it was above 110 µM. Further, the TGI in the experiment with TK-10 renal was above 347 µM.
In the case of `Cc1cnc2ccc(C)c([N+](=O)[O-])c2c1NCCCN(C)C`, the TGI in the experiment on A549 NSCLC, with LOX IMVI melanoma, in the experiment on NCI-H460 lung, with SF-539 CNS, with SR leukemia and in the experiment with TK-10 renal was above 100 µM in each case.
Turning to `C=C(CCCCC)CN1CCCC1C(C)=O` (stereo not given), the TGI in the experiment with A549 NSCLC is above 100 µM; in the experiment with HOP-92 NSCLC, 63.8 µM; with LOX IMVI melanoma, 65.3 µM; in the experiment on NCI-H460 lung, above 85.3 µM; in the experiment on SF-539 CNS, above 100 µM; in the experiment on SR leukemia, 40.1 µM. In addition, the TGI in the experiment on TK-10 renal is above 100 µM.
Take `NCCSSCc1ccccc1CSSCCN`: the TGI in the experiment with A549 NSCLC is above 100 µM; in the experiment with HOP-92 NSCLC it was above 100 µM; with LOX IMVI melanoma it was 41.8 µM; with NCI-H460 lung, above 100 µM; in the experiment with SF-539 CNS it was above 100 µM; in the experiment on SR leukemia, above 100 µM. The molecule also gave a TGI in the experiment on TK-10 renal above 100 µM.
In the case of `COc1ccc(Cc2c3cc(O)c(=O)cc-3ccn2C)cc1`, the TGI in the experiment with A549 NSCLC is above 100 µM; in the experiment with HOP-92 NSCLC, above 100 µM; in the experiment with LOX IMVI melanoma it was 34.5 µM; with NCI-H460 lung, above 100 µM; in the experiment with SF-539 CNS, 70.4 µM; in the experiment with SR leukemia, 37 µM. The molecule further gave a TGI in the experiment with TK-10 renal above 100 µM.
